Test [1] relates to HeLa cells (cervical cancer). Kind of test: MTT antiproliferative assay, HeLa. Format: cell-based, human. The settings on record: Homo sapiens, 72 h. The procedure, abridged: (§1)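 Cells seeded overnight, then exposed to compound at 10 µM and 30 µM for 72 h at 37 °C, 5% CO2. Growth inhibition read by MTT (4 h), formazan dissolved in DMSO, absorbance at 545 nm versus untreated controls; two independent experiments, five wells each.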

Test [2] deals with MDA-MB-231 cells (breast cancer). Kind of test: MTT antiproliferative assay, MDA-MB-231. Conditions: Homo sapiens. It counts as cell-based, human. The procedure, abridged: as §1
Test [3] is described as follows: DPPH free radical scavenging assay. Conditions: concentration range 3–100 µM.
Experimental: As a consequence, in vitro antioxidant activities of selected N-aliphatic- and N-aryl-substituted aminodiols were determined by 1,1-diphenyl-2-picrylhydrazyl (DPPH) assay.
The antioxidant effects of the aminodiol derivatives were tested on 1,1-diphenyl-2-picrylhydrazyl (DPPH) radicals according to Brand-Williams (1995) [55] and Sánchez-Moreno (2002) [56], with some modifications. […] After a 30 min incubation period at room temperature (25 °C) the absorbances were measured at 517 nm by a microplate reader (SPECTROStar Nano, BMG Labtech, Offenburg, Germany). Trolox (3,4-Dihydro-6-hydroxy-2,5,7,8-tetramethyl-2H-1-benzopyran-2-carboxylic acid) was used as a positive control. All measurements were performed in duplicate with 5 parallels.
For test [4], the system named is SiHa cells (cervical cancer). The test is described as follows: MTT antiproliferative assay, SiHa. Format: cell-based, human. Conditions: Homo sapiens, 72 h. In a few lines:
as §1

The subject of test [5] is A2780 ovarian cancer cells. The test is described as follows: MTT antiproliferative assay, A2780. Conditions: Homo sapiens. It counts as cell-based, human. The procedure, abridged:
as §1

Test [6] deals with NIH/3T3 mouse embryo fibroblast cells. The test is described as follows: MTT assay on non-cancerous fibroblasts (cancer selectivity). Format: cell-based. The protocol: (§2) The in vitro antiproliferative activities of the synthesized aminodiols 4–38 against a panel of different human cancer cell lines of gynecological origin, including cervical (SiHA and HeLa), breast (MCF7 and MDA-MB-231), and ovary (A2780) cancers were assayed by the MTT method. […] Cisplatin, a clinically applied anticancer agent, was used as a reference compound and the results are summarized in Figure 3 and Table S1 in Supporting Information. […] On the other hand, none of the prepared azole derivatives exerted relevant activity.
The growth-inhibitory effects of the gibberellic acid-based aminodiol derivatives were determined by a standard MTT (3-(4,5-dimethylthiazol-2-yl)-2,5-diphenyltetrazolium bromide) assay on a panel containing five cell lines, including Hela and Siha (cervical cancers); MDA-MB-231 and MCF-7 (breast cancers); and A2780 ovarian cancer cells. The most promising agents were additionally tested against NIH/3T3 mouse embryo fibroblast cells. All cell lines were purchased from the European Collection of Cell Cultures (Salisbury, UK) except SiHa, which was obtained from the American Tissue Culture Collection (Manassas, VA, USA). The cells were maintained in minimal essential medium supplemented with 10% fetal bovine serum, 1% non-essential amino acids, and 1% penicillin-streptomycin at 37 °C in a humidified atmosphere containing 5% CO2. All media and supplements were obtained from Lonza Group Ltd., (Basel, Switzerland). Cancer cells were seeded into 96-well plates (5000 cells/well), after an overnight incubation the test compound was added in 2 different concentrations (10 µM and 30 µM) and incubated for another 72 h under cell-culturing conditions. Then, 20 μL of 5 mg/mL MTT solution was added to each well and incubated for a further 4 h. The medium was removed, and the precipitated formazan crystals were dissolved in DMSO during 60 min of shaking at 37 °C. As the final step, the absorbance was measured at 545 nm by using a microplate reader (SPECTROStar Nano, BMG Labtech, Offenburg, Germany). Untreated cells were included as controls. […] These agents were additionally tested against NIH/3T3 fibroblasts to obtain results about their cancer selectivity. Two independent experiments were performed with five wells for each condition. Cisplatin (Ebewe GmbH, Unterach, Austria), a clinically used anticancer agent, was used as a positive control. Calculations were performed utilizing the GraphPad Prism 5.01 software (GraphPad Software Inc., San Diego, CA, USA).

For test [7], the system named is panel of human cancer cell lines. Kind of test: MTT antiproliferative assay, panel of human cancer cell lines (summary statements). Format: cell-based. Conditions: range over the cancer cell lines, read-out: calculated IC50 value on the malignant cell lines. As for the experimental part:
as §2
The growth-inhibitory effects of the gibberellic acid-based aminodiol derivatives were determined by a standard MTT (3-(4,5-dimethylthiazol-2-yl)-2,5-diphenyltetrazolium bromide) assay on a panel containing five cell lines, including Hela and Siha (cervical cancers); MDA-MB-231 and MCF-7 (breast cancers); and A2780 ovarian cancer cells. The most promising agents were additionally tested against NIH/3T3 mouse embryo fibroblast cells. All cell lines were purchased from the European Collection of Cell Cultures (Salisbury, UK) except SiHa, which was obtained from the American Tissue Culture Collection (Manassas, VA, USA). […] As the final step, the absorbance was measured at 545 nm by using a microplate reader (SPECTROStar Nano, BMG Labtech, Offenburg, Germany). […]

The mark [8] stands for this setting: 10 μM, read-out: Growth inhibition (%) ± SEM.
Where [9] appears, read: 30 μM, read-out: Growth inhibition (%) ± SEM.

As for `CCOC(=O)[C@H]1c2c(C)cccc2[C@H]2CC[C@]3(O)C[C@@]21C[C@]3(O)CN[C@@H](C)c1cccc2ccccc12` [Compound 13, Ethyl (4bS,7S,8S,9aR,10R)-7,8-dihydroxy-1-methyl-8-((((S)-1-(naphthalen-1-yl)ethyl)amino)methyl)-4b,6,7,8,9,10-hexahydro-5H-7,9a-methanobenzo[a]azulene-10-carboxylate], the inhibition at 10 µM in test [1] (setting [8]) turned out to be 97.16 ± 0.49%; in test [2] (MDA-MB-231, 10 μM, 72 h, read-out: Growth inhibition (%) ± SEM), 94.86 ± 0.83%; in test [4] (setting [8]) it was 96.05 ± 0.46%; in test [5] (A2780, 10 μM, 72 h, read-out: Growth inhibition (%) ± SEM), 91.2 ± 1.96%; in test [6] (Mus musculus, NIH3T3, NIH/3T3, 10 μM, 72 h, read-out: Growth inhibition (%) ± SEM) it was 40.5 ± 0.86%. For the same compound, the inhibition at 30 µM in test [1] (setting [9]) was 96.87 ± 0.47%; in test [2] (MDA-MB-231, 30 μM, 72 h, read-out: Growth inhibition (%) ± SEM) it was 96 ± 0.92%; in test [4] (setting [9]) it was 96.74 ± 0.27%; in test [5] (A2780, 30 μM, 72 h, read-out: Growth inhibition (%) ± SEM), 96.7 ± 1.17%; in test [6] (Mus musculus, NIH3T3, NIH/3T3, 30 μM, 72 h, read-out: Growth inhibition (%) ± SEM) it was 88.1 ± 0.16%. In addition, the IC50 is 4.38 ± 0.08 µM in test [1]; 7.49 ± 1.26 µM in test [2] (MDA-MB-231, 72 h); 4.69 ± 0.17 µM in test [4]; 5.3 ± 0.41 µM in test [5] (A2780, 72 h); 10.9 µM in test [6] (Mus musculus, NIH3T3, NIH/3T3, 72 h); 4.38 to 7.49 µM in test [7]. Besides, in test [3], the “DPPH scavenging activity” value is given as “None of the six molecules elicited considerable activity”. In test [6] (comparison of IC50 on fibroblasts and malignant cell lines), the “cancer selectivity (cancer cells vs NIH/3T3 fibroblasts), words” value is recorded as “modest cancer selectivity”.

The values are drawn from article PMC9499365, “Stereoselective Synthesis and Application of Gibberellic Acid-Derived Aminodiols” (International Journal of Molecular Sciences, 2022).
